How the values were obtained:
[1] = Gastric ulcer formation (Experiment 4); assay type: in vivo, male Sprague-Dawley rats; conditions: 10 mg/kg
Protocol: Male Sprague-Dawley rats weighing around 200 g were used as the test animals. […] As a reference, the rats of the control group were administrated ketoprofen orally as a suspension in physiological saline at the dose of 10 mg/kg. Six hours after the administration, the rats were sacrificed and ulcer formation in the stomach was scored as follows: 0; normal, 1; reddened mucosa, 2; one to four small ulcer (smaller than 2 mm in diameter). 3; more than four small ulcer or one large ulcer (larger than 2 mm in diameter), 4; more than one large ulcer. The score of two or higher was regarded as ulcer formation.

[2] = postdose, oral administration to rats; cited from earlier work

CC(C(=O)O)c1cccc(C(=O)c2ccccc2)c1 (stereo not shown) [ketoprofen]
No. of rat ulcer is produced ([1]; oral, 6 h after administration): 6/6 | Average ulcer score ([1]; oral, 6 h after administration, score 0-4): 2.91 | Time of maximum concentration of ketoprofen [2]: 0.25 to 0.5 h

CC(C(=O)O)c1ccc(-c2ccccc2)c(F)c1 (stereo not shown) [flurbiprofen]
Average ulcer score ([1]; rat, in vivo, po): 2.46 | No. of rat ulcer is produced ([1]; rat, in vivo, po): 5/6

CC(C)Cc1ccc(C(C)C(=O)O)cc1 (stereo not shown) [ibuprofen]
Average ulcer score ([1]; rat, in vivo, po): 2.53 | No. of rat ulcer is produced ([1]; rat, in vivo, po): 6/6

From patent US5527832A, “Antiinflammatory and analgesic transdermal gel” (priority 1994, dated 1996)
